Data from patent publication US8058451B2, “Hydroxycucurbituril derivatives, their preparation methods and uses” (Postech Foundation, priority 2002, dated 2011).

What was measured:
[1] = Host-guest complex formation with tetrahydrofuran in D2O; format: binding; settings: 6.6 mg host, 10 μL tetrahydrofuran, 0.5 mL D2O
Method: 6.6 mg of hydroxycucurbit[6]uril (CB[6]^OH) prepared in Synthesis Example 1 and 10 μL of tetrahydrofuran were dissolved in 0.5 mL of D2O.

[2] = Host-guest complex formation with cyclopentane in D2O; format: binding; settings: 6.6 mg host, 10 μL cyclopentane, 0.5 mL D2O
Method: 6.6 mg of hydroxycucurbit[6]uril (CB[6]^OH) prepared in Synthesis Example 1 and 10 μL of cyclopentane were dissolved in 0.5 mL of D2O.

[3] = Host-guest complex formation with p-toluidine in D2O; format: binding; settings: 6.6 mg host, 1.2 mg p-toluidine, 0.5 mL D2O
Method: 6.6 mg of hydroxycucurbit[6]uril (CB[6]^OH) prepared in Synthesis Example 1 and 1.2 mg of p-toluidine were dissolved in 0.5 mL of D2O.

[4] = Host-guest complex formation with p-toluidine hydrochloride in D2O; format: binding; settings: 6.6 mg host, 1.5 mg p-toluidine hydrochloride, 0.5 mL D2O
Method: 6.6 mg of hydroxycucurbit[6]uril (CB[6]^OH) prepared in Synthesis Example 1 and 1.5 mg of p-toluidine hydrochloride were dissolved in 0.5 mL of D2O.

[5] = Host-guest complex formation with 1,4-phenylindiamine in D2O; format: binding; settings: 6.6 mg host, 1.2 mg 1,4-phenylindiamine, 0.5 mL D2O
Method: 6.6 mg of hydroxycucurbit[6]uril (CB[6]^OH) prepared in Synthesis Example 1 and 1.2 mg of 1,4-phenylindiamine were dissolved in 0.5 mL of D2O.

[6] = Host-guest complex formation with isobutene gas in D2O; format: binding; settings: 6.6 mg host in 0.5 mL D2O, isobutene gas injected
[7] = Host-guest complex formation with acetylcholine chloride in D2O; format: binding; settings: 6.6 mg host, 2.0 mg acetylcholine chloride, 0.5 mL D2O
Method: To investigate whether the hydroxycucurbituril derivatives prepared in Synthesis Example 1 can effectively transport physiologically active materials or drugs, the following example was carried out using acetylcholine chloride as a neurotransmitter.

[8] = Ion selective electrode responses to ammonium, potassium, sodium, choline and acetylcholine ions
Method: 1% by weight of allyoxycucurbit[6]uril prepared in Synthesis Example 8, 33% by weight of polyvinylchloride and 66% by weight of 2-nitrophenyloctylether were dissolved in THF to form a membrane. With this membrane, an ion selective electrode was fabricated. Then, the responses of the electrode with respect to ammonium ion, potassium ion, sodium ion, choline ion and acetylcholine ion were measured in a 0.01M Tris-buffered solution. As a result, the selectivity of choline with respect to acetylcholine was −1.84, ammonium ion −1.31, potassium ion −0.90 and sodium ion −1.16, respectively. The allyloxycurcubit[6]uril according to the present invention can be advantageously used in clinical analysis by selective detection of a neurotransmitter in vivo, e.g., acetylcholine, instead of choline which is a major obstacle in analyzing acetylcholine. The ion selective electrode using allyoxycucurbit[6]uril can be used in measuring acetylcholine in a concentration range of 2.1×10^−6 M.

[9] = Binding constant measurement by microcalorimeter (VP-ITC) with KCl solution; settings: 0.05 M Tris-buffered solution pH 7.2; 5.5 mM host, 110 mM KCl
Method: Since the hydroxycucurbituril derivatives obtained in Synthesis Example 1 have Lewis base atoms near the cavities of the molecule, they can effectively form a complex with metal ions or positively charged organic compounds. With these features, in order to investigate whether the hydroxycucurbituril derivatives having this property can be applied in manufacturing sensors for sensing metal ions or ammonium ions, the following example was carried out.
A 0.05 M Tris-buffered solution of pH 7.2 was prepared, and then a 5.5 mM hydroxycucurbit[5]uril (CB[5]^OH) solution prepared in Synthesis Example 2 and 110 mM of a KCl solution were prepared. Then, the binding constants of the cucurbit[5]uril derivative was measured using a microcalorimeter (VP-ITC, manufactured by MicroCal).

[10] = Binding of ammonium ions in organic solvent (CD3CN); settings: 5.5 mg host, 6.7 mg (NH4)+(BPh4)-, 0.5 mL CD3CN
Method: To investigate whether ammonium ions present in an organic solvent can bind with CB[5]^OH, the following example was carried out.
5.5 mg of CB[5]^OH prepared in Synthesis Example 2 and 6.7 mg of (NH4)^+(BPh4)^− were dissolved in 0.5 mL CD3CN. Then, ammonium ions in (NH4)^+(BPh4)^− could bind with CB[5]^OH in an acetonitrile solution.

[11] = Ion selective electrode, potential differences on adding lead ions; settings: 1 mM Mg(OAc)2-HCl buffered solution pH 4; lead ions 10^-6 M to 10^-3 M
Method: A solution obtained by dissolving 1% by weight of CB[5]^OH prepared in Synthesis Example 2 in 0.1 mL of methanol, 33% by weight of polyvinylchloride used as a polymer support, 65.6% by weight of 2-nitrophenyloctylether used as a plasticizer and 0.4 mL of tetrahydrofuran dissolved in 0.4% by weight of potassium tetrakis(4-chlorophenyl)borate, were homogenously mixed, followed by slowly removing the solvent, to form an ion selective membrane. An ion selective electrode was fabricated with this ion selective membrane. An electrode with a silver wire coated with silver chloride in a 0.05 M aqueous KCl solution was used as a reference electrode.
The reference electrode and the ion selective electrode were immersed in 250 mL of 1 mM Mg(OAc)2—HCl buffered solution (pH=4), followed by continuously stirring for at least 1 hour until a membrane boundary potential was stabilized. Thereafter, potential differences were measured with adding lead ions to increase the concentration by 10 fold in the range of 10^−6 M to 10^−3 M using a micropipet at an interval of 100 seconds

## hydroxycucurbit[6]uril [CB[6]^OH]
[1]
  host-guest complex formation with tetrahydrofuran: Quantitative formation of a 1:1 host-guest complex
[2]
  host-guest complex formation with cyclopentane: Quantitative formation of a 1:1 host-guest complex
[3]
  host-guest complex formation with p-toluidine: Quantitative formation of a 1:1 host-guest complex
[4]
  host-guest complex formation with p-toluidine hydrochloride: Quantitative formation of a 1:1 host-guest complex
[5]
  host-guest complex formation with 1,4-phenylindiamine: Quantitative formation of a 1:1 host-guest complex
[6]
  host-guest complex formation with isobutene gas: forming a 1:1 host-guest complex
[7]
  host-guest complex formation with acetylcholine chloride: forming a 1:1 host-guest complex

## Allyloxycucurbit[6]uril [allyoxycucurbit[6]uril]
[8]
  concentration range in which acetylcholine can be measured: 2.1 µM

## hydroxycucurbit[5]uril [CB[5]^OH]
[9]
  binding with alkali metal ions and ammonium ions (microcalorimeter): could selectively bind with alkali metal ions, as well as with ammonium ions
[10]
  binding of ammonium ions of (NH4)+(BPh4)- in acetonitrile solution: could bind
[11]
  ion selective electrode detection of heavy metal ions (lead): could be used in detecting harmful heavy metal ions remaining in water
